The target of assay [1] is TANK-2 enzyme (Homo sapiens (Human), UniProt Q9H2K2). The experiment in a line: In vitro Scintillation Proximity Assay (SPA) for TANK-2 inhibitory activity. The class given is biochemical. As to conditions: auto-poly(ADP-ribosyl)ation, [3H]-NAD+, Ni flash plates (96 or 384 well). The protocol: C.2.In Vitro Scintillation Proximity Assay (SPA) for TANK-2 Inhibitory Activity
Compounds of the present invention were tested in an in vitro assay based on SPA technology with Ni Flash plates (96 or 384 well).
In principle, the assay relies upon SPA technology for the detection of auto-poly(ADP-ribosyl)ation of TANK-2 protein using [^3H]-nicotinamide adenine dinucleotide ([^3H]-NAD^+) as ADP-ribosyl donor.
A stock solution of 100 nM [^3H]-NAD^+/NAD (0.1 mCi/ml, supplier: Perkin Elmer) and 25 μM NAD (Sigma) was made in assay buffer (60 mM Tris/HCl, pH 7.4; 0.9 mM DTT; 6 mM MgCl2). The TANK-2 enzyme was produced as described in EP1238063. 60 μl of assay buffer, together with 1 μl of compound in DMSO, 20 μl of [^3H]-NAD^+/NAD and 20 μl of TANK-2 enzyme (final concentration 8 μg/ml) was added per well into a 96-well Ni-coated flash plate (Perkin Elmer). After incubation of the mixture for 120 minutes at room temperature, the reaction was terminated by adding 60 μl of stopsolution (42.6 mg NAD in 6 ml H2O). The plates were covered with a plate sealer and placed in a TopCountNXT™ (Packard) for scintillation counting. Values were expressed as counts per minute (cpm). For each experiment, controls (containing TANK-2 enzyme and DMSO without compound), a blank incubation (containing DMSO but no TANK-2 enzyme or compound) and samples (containing TANK-2 enzyme and compound dissolved in DMSO) were run in parallel. All compounds tested were dissolved and eventually further diluted in DMSO. In first instance, compounds were tested at a concentration of 10^−5M. […] In each test, the blank value was subtracted from both the control and the sample values. The control sample represented maximal TANK-2 enzyme activity. For each sample, the amount of cpm was expressed as a percentage of the mean cpm value of the controls. […] Herein the effects of test compounds are expressed as pIC50 (the negative log value of the IC50-value). As reference compounds, 3-aminobenzamide and 4-amino-1,8-naphtalimide were included to validate the SPA assay. Herein the assay was described using 96-well plates. In the assay using 384-well plates the same final concentrations were used and volumes were adapted.
Background: In a scintillation proximity assay essentially only radioactivity close to the scintillant gives light.

The test system of assay [2] is human prostate cancer PC3 cells. The experiment in a line: Eb1 Comet (microtubule disruption) assay. Format: cell-based. As to conditions: 1 hour treatment, LAC = concentration where Eb1 foci absent in at least 50% of treated cells. From the text:
Example C.6 Eb1 Comet (Microtubule Disruption) Assay
The Eb1 Comet assay relies on the detection of the Eb1 protein at the plus end of polymerizing microtubules (Mimori-Kiyosue, 2000) using indirect immunofluorescence. Disruption of microtubule dynamics through de-polymerization or stabilization results in a de-localization of Eb1 from the growing microtubule ends and this is visualized by the disappearance of Eb1 containing cytoplasmic foci.
Briefly, human prostate cancer PC3 cells obtained from the American Type Culture Collection were grown in 96-well plates (Greiner, cat. no. 655090) in HAM's F12 medium as recommended by the provider (ATCC). The cells were treated for 1 hour at 37° C. with compounds dissolved in DMSO (0.6% final DMSO concentration). The culture medium was then removed by aspiration and the cells were fixed by adding cold methanol (−20 C). After a 15 minutes incubation at −20° C., the cells were washed twice with DPBS (Gibco) containing 0.5% Triton X-100. Mouse Eb1 antibody (BD Transduction Laboratories, cat. no. 610534) was added to the cells (1/250 dilution in DPBS containing 1% BSA) and incubated overnight at room temperature. The antibody was subsequently removed and the cells washed twice with DPBS, 0.5% Triton X-100. Secondary goat anti-mouse antibody conjugated to Alexa 488 fluorescent dye (Molecular Probes) was added at a 1/500 dilution in DPBS, 1% BSA and incubated for 1 hour at 37° C. The cells were washed twice with DPBS, 0.5% Triton X-100 and then DPBS containing 0.5% Triton X-100 and 1/5000 Hoechst 33342 (Molecular Probes) was added. Microscopy based Eb1 foci visualization was carried out using an IN Cell Analyser 1000 (Amersham Biosciences) using a 20× objective. Compound dependent microtubule disruption was visually determined by the disappearance in Eb1 foci. The lowest active concentration (LAC) was determined as the concentration where Eb1 foci were absent in at least 50% of the treated cells. Herein the effects of tested compounds are expressed as pLAC (the negative log value of the LAC value) (see Table 3).

For assay [3], the system named is tubulin. Briefly: Tubulin polymerization assay. As to conditions: inhibition of polymerization at 20 μM and 5 μM. Format: biochemical. On the procedure:
Example C.5 Polymerization Assay
The tubulin polymerization assay is an adaptation of an assay originally described by Bonne, D. et al. (J. Biol. Chem., 1985, 260:2819-25). The assay kit was purchased from Cytoskeleton, Inc. (catalogue number BK011) and the assay was performed as described by the supplier with the following modifications. The assay was run in a 384-well black Proxiplate (Perkin Elmer) and volumes were adapted accordingly. The reactions were carried out in a final volume of 10 μl. Compounds were added to 25 μl of the reaction mix in 96-well PP plates (Corning) on ice and 10 μl of this mixture was dispensed into duplicates of the 384-well Proxiplates pre-warmed to 37° C. in a Fluoroskan Ascent plate reader (Thermo Scientific). Fluorescence measurements were taken every minute for one hour. The maximum slope of each well was determined (linear regression through 4 consecutive points) and polymerization was calculated as a percentage of polymerization observed in the absence of compound.

Assay [4] relates to Human colon carcinoma HCT116 cells. The experiment in a line: Detection of antiproliferative activity (Alamar Blue assay). The class given is cell-based. As to conditions: HCT-116, 96 h, 4-day incubation, read-out: Cellular assay HCT116 pIC50 (converted). On the procedure: Example C.4 Detection of Antiproliferative Activity
Human colon carcinoma HCT116 cells obtained from the ATCC were cultured in McCoy's 5A medium supplemented with 2 mM L-Glutamine, 50 μg/ml gentamicin and 10% heat inactivated fetal calf serum.
Reagents used in the Alamar Blue Assay
Resazurin was purchased from Aldrich (Prod. No. 199303). Potassium ferrocyanide, potassium ferricyanide, KH2PO4 and K2HPO4 were purchased from Sigma (Prod. Nos. P9387, P8131, P5655 and P8281, respectively).
Potassium Phosphate Buffer 0.1 M (PPB) was made as follows: 2.72 gram KH2PO4 and 13.86 gram K2HPO4 were dissolved in 500 ml milli-Q H2O, the pH was adjusted to pH 7.4 and the volume was brought to 1 liter with milli-Q H2O; the buffer was filter sterilised and stored at room temperature. Resazurin stock solution (PPB-A) was prepared fresh by dissolving 45 mg resazurin in 15 ml PBS. 30 mM potassium ferricyanide (PPB-B) was prepared by dissolving 0.987 gram potassium ferricyanide in 100 ml PPB. 30 mM potassium ferrocyanide (PPB-C) was prepared by dissolving 1.266 gram potassium ferrocyanide in 100 ml PPB.
Mixture of PPB-A, PPB-B and PPB-C was prepared by mixing equal volumes of the respective solutions. Resazurin work solution (herein termed “Alamar Blue” solution) was prepared by diluting said mixture 20× (vol/vol) in PPB and filter sterilising; the Alamar Blue solution could be kept at 4° C. for a maximum of 2 weeks.
Procedure of the Alamar Blue Assay
For experiments in 384 wells plates the cells were seeded at a density of 4.5×10^3 cells/ml in Falcon 384-well culture plates (Life Technologies, Merelbeke, Belgium), black with clear bottom, in 45 μl culture medium. Cells were allowed to adhere to plastic for 24 hours. The tested compound was pre-diluted (1/50 in culture medium) and 5 μl pre-diluted compound was added to the wells. Following 4-day incubation, 10 μl of the Alamar Blue solution was added to each well and the cells were further incubated for 4 hours (HCT116) or 24 hours (PC-3) at 37° C. The fluorescence intensity was measured for each well on a Fluorescence plate reader (Fluorskan, Labsystems, 540 nm excitation and 590 nm emission)
The antiproliferative activity was calculated as percentage of remaining viable cells in treated versus control (untreated cells) conditions. Within an experiment, the result for each experimental condition is the mean of 3 replicate wells. When appropriate, the experiments were repeated to establish full concentration-response curves. […] Herein the effects of tested compounds are expressed as pIC50 (the negative log value of the IC50 value) (see Table 3).
A general note: The colour change of resazurin is a common sign of viable cells or microbes.

SMILES strings stand for the structures.

Sequence of TANK-2 enzyme (Q9H2K2 whole entry): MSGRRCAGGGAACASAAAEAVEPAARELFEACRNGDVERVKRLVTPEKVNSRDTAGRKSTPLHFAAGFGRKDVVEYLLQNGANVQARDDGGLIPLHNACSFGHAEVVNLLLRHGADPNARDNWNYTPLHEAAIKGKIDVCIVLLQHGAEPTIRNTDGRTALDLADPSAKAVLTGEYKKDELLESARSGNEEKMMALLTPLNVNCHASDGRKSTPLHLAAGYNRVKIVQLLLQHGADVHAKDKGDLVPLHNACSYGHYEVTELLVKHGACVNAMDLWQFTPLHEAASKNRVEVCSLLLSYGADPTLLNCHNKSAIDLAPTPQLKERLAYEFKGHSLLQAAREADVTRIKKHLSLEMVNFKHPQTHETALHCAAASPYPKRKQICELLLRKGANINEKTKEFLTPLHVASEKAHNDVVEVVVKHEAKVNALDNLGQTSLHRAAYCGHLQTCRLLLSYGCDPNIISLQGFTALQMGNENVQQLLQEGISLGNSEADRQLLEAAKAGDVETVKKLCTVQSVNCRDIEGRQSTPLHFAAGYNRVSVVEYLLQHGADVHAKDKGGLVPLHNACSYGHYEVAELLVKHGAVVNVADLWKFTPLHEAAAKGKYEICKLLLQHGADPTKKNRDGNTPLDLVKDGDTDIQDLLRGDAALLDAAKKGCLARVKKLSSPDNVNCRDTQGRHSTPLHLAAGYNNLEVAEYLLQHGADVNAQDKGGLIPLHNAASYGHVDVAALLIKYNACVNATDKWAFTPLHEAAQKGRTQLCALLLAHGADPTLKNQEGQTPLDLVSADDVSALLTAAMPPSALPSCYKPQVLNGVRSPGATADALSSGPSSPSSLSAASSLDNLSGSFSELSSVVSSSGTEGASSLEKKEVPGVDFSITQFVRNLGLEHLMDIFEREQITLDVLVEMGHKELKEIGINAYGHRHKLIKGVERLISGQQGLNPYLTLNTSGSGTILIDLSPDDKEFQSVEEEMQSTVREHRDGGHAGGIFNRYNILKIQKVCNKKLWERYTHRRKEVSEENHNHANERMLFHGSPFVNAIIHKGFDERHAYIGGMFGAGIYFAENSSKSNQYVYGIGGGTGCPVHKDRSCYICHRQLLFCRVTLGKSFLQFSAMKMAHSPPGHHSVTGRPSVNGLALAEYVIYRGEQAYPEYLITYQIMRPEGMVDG

With `COc1cc(OC)nc(CC(C)(C#N)c2ccc3c4c(c(=O)[nH]c3c2)CCCC4)n1` (stereo not shown) [Co. No. 6], the “in vitro SPA assay TANK-2 pIC50” value in assay [1] came out at 7.72. Also, the “Cellular assay Eb1 pLAC” value in assay [2] came to 8. Besides, in assay [3], the “Assay Tubulin Polymerization score” value is on record as 3 (a compound showing more than 50% inhibition at 5 μM is reported as score 3). In assay [4], the IC50 is 57.5 nM.

The values are drawn from patent publication US9598396B2, “Tetrahydrophenanthridinones and tetrahydrocyclopentaquinolinones as PARP and tubulin polymerization inhibitors” (Janssen Pharmaceutica NV, priority 2008, dated 2017).
